# Values of other authors, collected in publication PMC10025373, “Red ginseng dietary fiber promotes probiotic properties of Lactiplantibacillus plantarum and alters bacterial metabolism” (Frontiers in Microbiology, 2023).
# What was measured:
# [1] = system: Staphylococcus aureus; conditions: ref Lens et al., 2016
# [2] = system: E. coli; conditions: ref Lens et al., 2016
# [3] = system: actomyosin motor; parameters: method as in Komatsu et al., 2004; conditions: ref Komatsu et al., 2004
SMILES,antimicrobial activity [1],antimicrobial activity [2],function of the actomyosin motor [3]
CCCCOC(C)=O [butyl acetate],antimicrobial activity,antimicrobial activity,
CCCCCCO [Hexanol],,,modulates the function of the actomyosin motor
